{"source": "patent US20100298141A1", "about": "“SUBSTITUTED PYRIDINE N-OXIDE HERBICIDES” (E. I. DU PONT DE NEMOURS AND COMPANY, priority 2007, published 2010)", "key": {"yellow nutsedge": {"test_system": "yellow nutsedge", "assay": "Test G preemergence test", "type": "in vivo, Cyperus esculentus", "settings": "scale 0 to 100"}, "common chickweed": {"test_system": "common chickweed", "assay": "Test F preemergence test", "type": "in vivo, Stellaria media", "settings": "scale 0 to 100", "outline": "(§1)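 Preemergence application to planted seeds, or postemergence to sugarcane plants; compound in non-phytotoxic solvent mix plus surfactant. Greenhouse, 14-21 days. Visual rating vs. controls.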"}, "wild oat": {"test_system": "wild oat", "assay": "Test D preemergence test", "type": "in vivo, Avena fatua", "settings": "scale 0 to 100", "from_the_text": "Seeds of plant species selected from annual bluegrass (Poa annua), blackgrass (Alopecurus myosuroides), downy bromegrass (Bromus tectorum), field violet (Viola arvensis), green foxtail (Setaria viridis), Italian ryegrass (Lolium multiflorum), littleseed canarygrass (Phalaris minor), spring wheat (Triticum aestivum), wild oat (Avena fatua), […]), winter barley (Hordeum vulgare), and winter wheat (Triticum aestivum) were planted and treated preemergence with test chemicals formulated in a non-phytotoxic solvent mixture which included a surfactant. […] A dash (-) response means no test result."}, "Russian thistle": {"test_system": "Russian thistle", "assay": "Test F preemergence test", "type": "in vivo, Salsola kali", "settings": "scale 0 to 100", "from_the_text": "Seeds of plant species selected from bermudagrass (Cynodon dactylon), Surinam grass (Brachiaria decumbens), large crabgrass (Digitaria sanguinalis), green foxtail (Setaria viridis), goosegrass (Eleusine indica), johnsongrass (Sorghum halepense), kochia (Kochia scoparia), pitted morningglory (Ipomoea lacunosa), purple nutsedge (Cyperus rotundus), common ragweed (Ambrosia elation), mustard (Brassica nigra), guineagrass (Panicum maximum), […] (Paspalum dilatatum), barnyardgrass (Echinochloa crus-galli), southern sandbur (Cenchrus echinatus), common sowthistle (Sonchus oleraceous), prickly […] spinosa), Italian ryegrass (Lolium multiflorum), common purslane (Portulaca oleracea), broadleaf signalgrass (Brachiaria platyphylla), common groundsel (Senecio vulgaris), common chickweed (Stellaria media), Virginia dayflower (Commelina virginica), annual bluegrass (Poa annua), naked crabgrass (Digitaria nuda), […] cochinchinensis), quackgrass (Elytrigia repens), Canada horseweed (Conyza canadensis), field bindweed (Convolvulus arvensis), […] (Bidens bipinnata), common mallow (Malva sylvestris), Russian thistle (Salsola kali), and sugarcane (Saccharum officinarum) were planted and treated preemergence with test chemicals formulated in a non-phytotoxic solvent mixture which included a surfactant. At a different time, sugarcane was treated with postemergence applications of some of the test chemicals formulated in the same manner. Plants were approximately 3- to 4-leaf stage for the postemergence treatments. Treated plants and controls were maintained in a greenhouse for 14 to 21 days, after which time all species were compared to controls and visually evaluated. […] A dash (-) response means no test result."}, "guineagrass": {"test_system": "guineagrass", "assay": "Test F preemergence test", "type": "in vivo, Panicum maximum", "settings": "scale 0 to 100", "outline": "as §1"}, "Canada horseweed": {"test_system": "Canada horseweed", "assay": "Test F preemergence test", "type": "in vivo, Conyza canadensis", "settings": "scale 0 to 100", "outline": "as §1"}, "barnyardgrass": {"test_system": "barnyardgrass", "assay": "Test G preemergence test", "type": "in vivo, Echinochloa crus-galli", "settings": "scale 0 to 100"}, "common sowthistle": {"test_system": "common sowthistle", "assay": "Test F preemergence test", "type": "in vivo, Sonchus oleraceous", "settings": "scale 0 to 100", "outline": "as §1"}, "windgrass": {"test_system": "windgrass", "assay": "Test C pre-/postemergence test", "type": "in vivo, Apera spica-venti", "settings": "Postemergence; for Plant response rating, Windgrass: scale 0 to 100, 0 no effect, 100 complete control"}, "chickweed": {"test_system": "chickweed", "assay": "Test C postemergence test", "type": "in vivo, Stellaria media", "settings": "for Plant response rating, Chickweed: scale 0 to 100, 0 no effect, 100 complete control", "outline": "(§2)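 Postemergence sprays of formulated test chemicals on plants 2 to 18 cm tall (1- to 4-leaf stage). Greenhouse hold for 13 to 15 days, then visual rating of each species against untreated controls; dash means no test result.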"}, "canarygrass": {"test_system": "canarygrass", "assay": "Test C postemergence test", "type": "in vivo, Phalaris minor", "settings": "for Plant response rating, Canarygrass: scale 0 to 100, 0 no effect, 100 complete control", "outline": "as §2"}, "winter barley": {"test_system": "winter barley", "assay": "Test C postemergence test", "type": "in vivo, Hordeum vulgare", "settings": "for Plant response rating, Barley: scale 0 to 100, 0 no effect, 100 complete control", "outline": "as §2"}}, "data": [{"smiles": "Cc1cc[n+]([O-])c(S(=O)(=O)C(Cl)c2c(C(F)(F)F)nn(C)c2Cl)c1", "note": "(racemic) [Compound 22]", "values": [{"measurement": "Plant response rating, Nutsedge, Yellow", "setting": "yellow nutsedge; 31 g ai/ha", "result": 0}, {"measurement": "Plant response rating, Nutsedge, Yellow", "setting": "yellow nutsedge; 62 g ai/ha", "result": 0}, {"measurement": "Plant response rating, Nutsedge, Yellow", "setting": "yellow nutsedge; 125 g ai/ha", "result": 0}, {"measurement": "Plant response rating, Nutsedge, Yellow", "setting": "yellow nutsedge; 250 g ai/ha", "result": 45}, {"measurement": "Chickweed plant response rating", "setting": "common chickweed; 62 g ai/ha, Preemergence", "result": 100}, {"measurement": "Chickweed plant response rating", "setting": "common chickweed; 125 g ai/ha, preemergence", "result": 100}, {"measurement": "Plant response rating, Chickweed", "setting": "common chickweed; Preemergence, 16 g ai/ha", "result": 0}, {"measurement": "Plant response rating, Chickweed", "setting": "common chickweed; Preemergence, 31 g ai/ha", "result": 65}, {"measurement": "Plant response rating, Oat, Wild", "setting": "wild oat; 31 g ai/ha", "result": 0}, {"measurement": "Plant response rating, Oat, Wild", "setting": "wild oat; 62 g ai/ha", "result": 0}, {"measurement": "Plant response rating, Oat, Wild", "setting": "wild oat; 125 g ai/ha", "result": 0}, {"measurement": "Plant response rating, Oat, Wild", "setting": "wild oat; 250 g ai/ha", "result": 15}, {"measurement": "Russian Thistle plant response rating", "setting": "Russian thistle; 125 g ai/ha, preemergence", "result": 100}, {"measurement": "Guineagrass plant response rating", "setting": "guineagrass; 62 g ai/ha, Preemergence", "result": 90}, {"measurement": "Guineagrass plant response rating", "setting": "guineagrass; 125 g ai/ha, preemergence", "result": 100}, {"measurement": "Plant response rating, Guineagrass", "setting": "guineagrass; Preemergence, 16 g ai/ha", "result": 60}, {"measurement": "Plant response rating, Guineagrass", "setting": "guineagrass; Preemergence, 31 g ai/ha", "result": 80}, {"measurement": "Horseweed plant response rating", "setting": "Canada horseweed; 62 g ai/ha, Preemergence", "result": 0}, {"measurement": "Horseweed plant response rating", "setting": "Canada horseweed; 125 g ai/ha, preemergence", "result": 100}, {"measurement": "Plant response rating, Horseweed", "setting": "Canada horseweed; Preemergence, 16 g ai/ha", "result": 0}, {"measurement": "Plant response rating, Horseweed", "setting": "Canada horseweed; Preemergence, 31 g ai/ha", "result": 0}, {"measurement": "Plant response rating, Barnyardgrass", "setting": "barnyardgrass; 31 g ai/ha", "result": 0}, {"measurement": "Plant response rating, Barnyardgrass", "setting": "barnyardgrass; 62 g ai/ha", "result": 95}, {"measurement": "Plant response rating, Barnyardgrass", "setting": "barnyardgrass; 125 g ai/ha", "result": 100}, {"measurement": "Plant response rating, Barnyardgrass", "setting": "barnyardgrass; 250 g ai/ha", "result": 100}, {"measurement": "Sowthistle plant response rating", "setting": "common sowthistle; 62 g ai/ha, Preemergence", "result": 90}, {"measurement": "Sowthistle plant response rating", "setting": "common sowthistle; 125 g ai/ha, preemergence", "result": 100}, {"measurement": "Plant response rating, Sowthistle", "setting": "common sowthistle; Preemergence, 31 g ai/ha", "result": 90}]}, {"smiles": "Cc1cc[n+]([O-])c(S(=O)(=O)Cc2c(C(F)(F)F)nn(C)c2OC(F)F)c1", "note": "[Compound 2]", "values": [{"measurement": "Plant response rating, Nutsedge, Yellow", "setting": "yellow nutsedge; 31 g ai/ha", "result": 0}, {"measurement": "Plant response rating, Nutsedge, Yellow", "setting": "yellow nutsedge; 62 g ai/ha", "result": 0}, {"measurement": "Plant response rating, Nutsedge, Yellow", "setting": "yellow nutsedge; 125 g ai/ha", "result": 35}, {"measurement": "Plant response rating, Nutsedge, Yellow", "setting": "yellow nutsedge; 250 g ai/ha", "result": 75}, {"measurement": "Plant response rating, Chickweed", "setting": "common chickweed; 8 g ai/ha, preemergence", "result": 10}, {"measurement": "Chickweed plant response rating", "setting": "common chickweed; 62 g ai/ha, Preemergence", "result": 100}, {"measurement": "Plant response rating, Chickweed", "setting": "common chickweed; Preemergence, 16 g ai/ha", "result": 80}, {"measurement": "Plant response rating, Chickweed", "setting": "common chickweed; Preemergence, 31 g ai/ha", "result": 95}, {"measurement": "Plant response rating, Oat, Wild", "setting": "wild oat; 31 g ai/ha", "result": 0}, {"measurement": "Plant response rating, Oat, Wild", "setting": "wild oat; 62 g ai/ha", "result": 0}, {"measurement": "Plant response rating, Oat, Wild", "setting": "wild oat; 125 g ai/ha", "result": 0}, {"measurement": "Plant response rating, Oat, Wild", "setting": "wild oat; 250 g ai/ha", "result": 10}, {"measurement": "Plant response rating, Russian Thistle", "setting": "Russian thistle; 8 g ai/ha, preemergence", "result": 0}, {"measurement": "Plant response rating, Russian Thistle", "setting": "Russian thistle; Preemergence, 16 g ai/ha", "result": 0}, {"measurement": "Plant response rating, Russian Thistle", "setting": "Russian thistle; Preemergence, 31 g ai/ha", "result": 0}, {"measurement": "Plant response rating (0 to 100), Windgrass", "setting": "windgrass; 31 g ai/ha", "result": 0}, {"measurement": "Plant response rating (0 to 100), Windgrass", "setting": "windgrass; 62 g ai/ha", "result": 10}, {"measurement": "Plant response rating, Windgrass", "setting": "windgrass; 125 g ai/ha", "result": 50}, {"measurement": "Plant response rating, Windgrass", "setting": "windgrass; 250 g ai/ha", "result": 70}, {"measurement": "Plant response rating, Guineagrass", "setting": "guineagrass; 8 g ai/ha, preemergence", "result": 0}, {"measurement": "Guineagrass plant response rating", "setting": "guineagrass; 62 g ai/ha, Preemergence", "result": 100}, {"measurement": "Plant response rating, Guineagrass", "setting": "guineagrass; Preemergence, 16 g ai/ha", "result": 65}, {"measurement": "Plant response rating, Guineagrass", "setting": "guineagrass; Preemergence, 31 g ai/ha", "result": 90}, {"measurement": "Plant response rating (0 to 100), Chickweed", "setting": "chickweed; 31 g ai/ha", "result": 0}, {"measurement": "Plant response rating, Chickweed", "setting": "chickweed; 62 g ai/ha", "result": 0}, {"measurement": "Plant response rating, Chickweed", "setting": "chickweed; 125 g ai/ha", "result": 5}, {"measurement": "Plant response rating, Chickweed", "setting": "chickweed; 250 g ai/ha", "result": 80}, {"measurement": "Plant response rating, Barnyardgrass", "setting": "barnyardgrass; 31 g ai/ha", "result": 15}, {"measurement": "Plant response rating, Barnyardgrass", "setting": "barnyardgrass; 62 g ai/ha", "result": 100}, {"measurement": "Plant response rating, Barnyardgrass", "setting": "barnyardgrass; 125 g ai/ha", "result": 100}, {"measurement": "Plant response rating, Barnyardgrass", "setting": "barnyardgrass; 250 g ai/ha", "result": 100}, {"measurement": "Plant response rating (0 to 100), Canarygrass", "setting": "canarygrass; 31 g ai/ha", "result": 0}, {"measurement": "Plant response rating, Canarygrass", "setting": "canarygrass; 62 g ai/ha", "result": 0}, {"measurement": "Plant response rating, Canarygrass", "setting": "canarygrass; 125 g ai/ha", "result": 0}, {"measurement": "Plant response rating, Canarygrass", "setting": "canarygrass; 250 g ai/ha", "result": 0}, {"measurement": "Plant response rating (0 to 100), Barley", "setting": "winter barley; 31 g ai/ha", "result": 0}, {"measurement": "Plant response rating, Barley", "setting": "winter barley; 62 g ai/ha", "result": 0}, {"measurement": "Plant response rating, Barley", "setting": "winter barley; 125 g ai/ha", "result": 0}, {"measurement": "Plant response rating, Barley", "setting": "winter barley; 250 g ai/ha", "result": 0}, {"measurement": "Plant response rating, Sowthistle", "setting": "common sowthistle; 8 g ai/ha, preemergence", "result": 0}, {"measurement": "Plant response rating, Sowthistle", "setting": "common sowthistle; 16 g ai/ha, preemergence", "result": 0}, {"measurement": "Sowthistle plant response rating", "setting": "common sowthistle; 62 g ai/ha, Preemergence", "result": 100}, {"measurement": "Plant response rating, Sowthistle", "setting": "common sowthistle; Preemergence, 31 g ai/ha", "result": 60}]}]}
